Experimental data published in patent publication US20230131402A1, “SPIRO-LACTAM NMDA RECEPTOR MODULATORS AND USES THEREOF” (Aptinyx Inc., priority 2016, published 2023).
Read-outs that look alike come from different tables or passages of the source.

Key:
[1] = system: positive (hedonic) 50-kHz ultrasonic vocalizations (USVs); assay: Positive emotional learning (PEL) test; format: in vivo, rats; details: rat, PO, 1 h after administration
Procedure: Experiments were conducted as described in Burgdorf et al., “The effect of selective breeding for differential rates of 50-kHz ultrasonic vocalizations on emotional behavior in rats,” Devel. Psychobiol., 51:34-46 (2009). Rat 50-kHz ultrasonic vocalization (hedonic USVs) is a validated model for the study of positive affective state and is best elicited by rough-and-tumble play.
The PEL assay measures the acquisition of positive (hedonic) 50-kHz ultrasonic vocalizations (USVs) to a social stimulus, heterospecific rough and tumble play stimulation. Heterospecific rough-and-tumble play stimulation was administered by the experimenter's right hand. One hour after administration of test compound or vehicle negative control (0.5% sodium carboxymethyl cellulose in 0.9% sterile saline vehicle), animals received 3 min of heterospecific rough-and-tumble play that consisted of alternating 15 sec blocks of heterospecific play and 15 sec of no-stimulation. High frequency ultrasonic vocalizations (USVs) were recorded and analyzed by sonogram with Avasoft SASlab Pro (Germany) as previously described by Burgdorf et al., “Positive emotional learning is regulated in the medial prefrontal cortex by GluN2B-containing NMDA receptors,” Neuroscience, 192:515-523 (2011). Frequency modulated 50-kHz US V s that occurred during each of the no-stimulation periods were quantified to measure PEL. Animals were not habituated to play stimulation before testing. Positive emotional learning was measured during the conditioned stimulus (CS) trials preceding the tickle unconditioned stimulus (UCS) trials. Animals received 15 second trials consisting of 6 CS and 6 UCS trials each (3 min total).
The table below summarizes the findings. As each experiment includes its own vehicle group, an example (typical) vehicle score is shown. Max effect (mean number of 50 kHz USVs per 15 seconds) is reported as ∧: <6.0; *: 6.0-7.6; **: 7.7-10; ***: 10.1-20.

NMDAR2A = target: T1, NMDAR2A (Homo sapiens, UniProt Q12879); assay: [3H]MK-801 binding, NMDAR2A expressing HEK cell membranes; format: biochemical; details: 50 μM glutamate; for Emax: read-out: NMDAR2A A: % maximal [3H]MK-801 binding relative to 1 mM glycine; for EC50: read-out: NMDAR2A B: log EC50 (converted)
T1 construct: expressed in transfected cells; host or cells: HEK cells (membrane extract)
Procedure: (§1) Assays were conducted as described by Moskal et al., “GLYX-13: a monoclonal antibody-derived peptide that acts as an N-methyl-D-aspartate receptor modulator,” Neuropharmacology, 49, 1077-87, 2005. These studies were designed to determine if the test compounds act to facilitate NMDAR activation in NMDAR2A, NMDAR2B, NMDAR2C or NMDAR2D expressing HEK cell membranes as measured by increases in [^3H]MK-801 binding.
(§2) In the assay, 300 μg of NMDAR expressing HEK cell membrane extract protein was preincubated for 15 minutes at 25° C. in the presence of saturating concentrations of glutamate (50 μM) and varying concentrations of test compound (1×10^−15M−1×10^−7M), or 1 mM glycine. Following the addition of 0.3 μCi of [^3H]MK-801 (22.5 Ci/mmol), reactions were again incubated for 15 minutes at 25° C. (nonequilibrium conditions). Bound and free [^3H]MK-801 were separated via rapid filtration using a Brandel apparatus.
(§3) In analyzing the data, the DPM (disintegrations per minute) of [^3H]MK-801 remaining on the filter were measured for each concentration of test compound or for 1 mM glycine. The DPM values for each concentration of a ligand (N=2) were averaged. The baseline value was determined from the best fit curve of the DPM values modeled using the GraphPad program and the log(agonist) vs. response(three parameters) algorithm was then subtracted from all points in the dataset. The % maximal [^3H]MK-801 binding was then calculated relative to that of 1 mM glycine: all baseline subtracted DPM values were divided by the average value for 1 mM glycine. The EC50 and % maximal activity were then obtained from the best fit curve of the % maximal [^3H]MK-801 binding data modelled using the GraphPad program and the log(agonist) vs. response(three parameters) algorithm.
(§4) The tables below summarize the results for the wild type NMDAR agonists NMDAR2A, NMDAR2B, NMDAR2C, and NMDAR2D, and whether the compound is not an agonist (−), is an agonist (+), or is a strong agonist (++), where column A is based on the % maximal [^3H]MK-801 binding relative to 1 mM glycine (−=0; <100%=+; and >100%=++); and column B is based on log EC50 values (0=−; ≥1×10^−9M (e.g., −8)=+; and <1×10^−9M (e.g., −10)=++).

NMDAR2B = target: T2, NMDAR2B (Homo sapiens, UniProt Q13224); assay: [3H]MK-801 binding, NMDAR2B expressing HEK cell membranes; format: biochemical; details: 50 μM glutamate; for EC50: read-out: NMDAR2B B: log EC50 (converted); for Emax: read-out: NMDAR2B A: % maximal [3H]MK-801 binding relative to 1 mM glycine
T2 construct: expressed in transfected cells; host or cells: HEK cells (membrane extract)
T2 sequence (Q13224 27-1484, species assumed, other chains not shown): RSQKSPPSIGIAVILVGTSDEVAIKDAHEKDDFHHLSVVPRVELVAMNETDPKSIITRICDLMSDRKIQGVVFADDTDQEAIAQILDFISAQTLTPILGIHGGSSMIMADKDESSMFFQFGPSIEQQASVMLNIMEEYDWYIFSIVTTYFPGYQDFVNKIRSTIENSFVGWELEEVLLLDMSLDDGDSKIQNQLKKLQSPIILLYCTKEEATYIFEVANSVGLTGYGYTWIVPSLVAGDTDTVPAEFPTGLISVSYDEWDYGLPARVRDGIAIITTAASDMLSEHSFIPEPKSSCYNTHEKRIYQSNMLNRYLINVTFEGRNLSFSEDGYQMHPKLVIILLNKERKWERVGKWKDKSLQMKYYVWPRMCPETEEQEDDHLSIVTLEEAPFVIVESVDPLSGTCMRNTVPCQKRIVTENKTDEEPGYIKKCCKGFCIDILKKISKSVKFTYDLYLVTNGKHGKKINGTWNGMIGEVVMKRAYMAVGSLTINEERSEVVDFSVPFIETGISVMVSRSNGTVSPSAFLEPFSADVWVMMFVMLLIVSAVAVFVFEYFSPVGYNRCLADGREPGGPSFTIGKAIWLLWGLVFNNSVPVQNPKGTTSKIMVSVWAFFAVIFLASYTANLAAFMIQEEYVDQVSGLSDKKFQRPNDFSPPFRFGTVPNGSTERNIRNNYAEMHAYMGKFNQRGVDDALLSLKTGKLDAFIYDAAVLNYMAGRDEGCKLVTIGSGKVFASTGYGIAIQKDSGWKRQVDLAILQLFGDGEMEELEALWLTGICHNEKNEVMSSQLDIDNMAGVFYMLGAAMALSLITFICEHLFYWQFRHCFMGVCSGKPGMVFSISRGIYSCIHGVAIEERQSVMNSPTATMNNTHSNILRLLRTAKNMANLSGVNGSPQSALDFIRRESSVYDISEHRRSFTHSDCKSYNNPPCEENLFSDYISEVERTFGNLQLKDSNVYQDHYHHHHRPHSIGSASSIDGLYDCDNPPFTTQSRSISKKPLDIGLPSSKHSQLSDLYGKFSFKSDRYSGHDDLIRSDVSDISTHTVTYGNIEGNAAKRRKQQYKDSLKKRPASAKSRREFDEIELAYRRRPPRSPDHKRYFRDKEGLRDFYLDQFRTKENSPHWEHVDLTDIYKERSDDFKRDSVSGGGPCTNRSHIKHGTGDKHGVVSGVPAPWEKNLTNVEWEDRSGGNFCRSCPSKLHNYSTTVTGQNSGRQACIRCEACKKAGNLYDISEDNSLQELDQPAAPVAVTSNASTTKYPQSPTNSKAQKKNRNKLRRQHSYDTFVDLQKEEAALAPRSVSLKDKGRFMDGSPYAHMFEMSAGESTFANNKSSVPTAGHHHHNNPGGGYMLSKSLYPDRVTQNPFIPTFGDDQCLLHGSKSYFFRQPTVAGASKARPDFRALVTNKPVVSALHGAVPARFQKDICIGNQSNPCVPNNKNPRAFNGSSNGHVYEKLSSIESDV
Procedure: as §1, §2, §3, §4

NMDAR2C = target: T3, NMDAR2C (Homo sapiens, UniProt Q14957); assay: [3H]MK-801 binding, NMDAR2C expressing HEK cell membranes; format: biochemical; details: 50 μM glutamate; for EC50: read-out: NMDAR2C B: log EC50 (converted)
T3 construct: expressed in transfected cells; host or cells: HEK cells (membrane extract)
T3 sequence (Q14957 20-1233, species assumed, other chains not shown): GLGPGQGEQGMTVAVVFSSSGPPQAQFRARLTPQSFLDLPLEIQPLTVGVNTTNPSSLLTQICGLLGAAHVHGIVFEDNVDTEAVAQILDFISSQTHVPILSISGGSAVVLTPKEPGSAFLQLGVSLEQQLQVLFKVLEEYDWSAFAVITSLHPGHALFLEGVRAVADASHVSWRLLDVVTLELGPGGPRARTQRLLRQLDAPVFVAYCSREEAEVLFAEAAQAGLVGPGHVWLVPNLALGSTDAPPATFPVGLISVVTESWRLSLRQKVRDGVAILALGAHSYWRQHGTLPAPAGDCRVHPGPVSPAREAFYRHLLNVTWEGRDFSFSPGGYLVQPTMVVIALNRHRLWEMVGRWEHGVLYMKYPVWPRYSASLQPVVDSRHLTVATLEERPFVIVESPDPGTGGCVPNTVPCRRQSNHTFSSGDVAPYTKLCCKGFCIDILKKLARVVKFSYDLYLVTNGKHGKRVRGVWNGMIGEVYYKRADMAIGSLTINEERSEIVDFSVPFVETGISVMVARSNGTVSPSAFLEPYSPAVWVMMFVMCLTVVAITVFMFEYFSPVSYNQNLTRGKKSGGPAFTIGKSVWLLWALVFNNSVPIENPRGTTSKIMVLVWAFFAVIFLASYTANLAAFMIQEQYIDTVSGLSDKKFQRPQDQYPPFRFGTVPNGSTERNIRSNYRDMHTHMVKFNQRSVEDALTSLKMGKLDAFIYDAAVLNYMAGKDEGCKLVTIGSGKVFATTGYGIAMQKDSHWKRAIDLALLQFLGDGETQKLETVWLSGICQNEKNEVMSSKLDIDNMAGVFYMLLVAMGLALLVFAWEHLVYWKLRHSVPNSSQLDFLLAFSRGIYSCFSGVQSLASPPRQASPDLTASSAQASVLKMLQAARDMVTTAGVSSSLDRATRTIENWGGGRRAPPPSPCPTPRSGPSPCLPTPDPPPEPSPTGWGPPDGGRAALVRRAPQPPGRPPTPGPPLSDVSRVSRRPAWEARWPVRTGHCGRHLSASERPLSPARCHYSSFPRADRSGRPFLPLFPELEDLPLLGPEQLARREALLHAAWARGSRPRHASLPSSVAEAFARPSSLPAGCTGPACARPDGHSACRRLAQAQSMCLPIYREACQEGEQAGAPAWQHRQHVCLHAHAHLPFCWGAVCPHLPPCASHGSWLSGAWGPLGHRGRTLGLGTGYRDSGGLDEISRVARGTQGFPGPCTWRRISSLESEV
Procedure: as §1, §2, §3, §4

NMDAR2D [2] = target: T4, NMDAR2D (Homo sapiens, UniProt O15399); assay: [3H]MK-801 binding, NMDAR2D expressing HEK cell membranes; format: biochemical; details: 50 μM glutamate; for EC50: read-out: NMDAR2D B: log EC50 (converted)
T4 construct: expressed in transfected cells; host or cells: HEK cells (membrane extract)
T4 sequence (O15399 28-1336, species assumed, other chains not shown): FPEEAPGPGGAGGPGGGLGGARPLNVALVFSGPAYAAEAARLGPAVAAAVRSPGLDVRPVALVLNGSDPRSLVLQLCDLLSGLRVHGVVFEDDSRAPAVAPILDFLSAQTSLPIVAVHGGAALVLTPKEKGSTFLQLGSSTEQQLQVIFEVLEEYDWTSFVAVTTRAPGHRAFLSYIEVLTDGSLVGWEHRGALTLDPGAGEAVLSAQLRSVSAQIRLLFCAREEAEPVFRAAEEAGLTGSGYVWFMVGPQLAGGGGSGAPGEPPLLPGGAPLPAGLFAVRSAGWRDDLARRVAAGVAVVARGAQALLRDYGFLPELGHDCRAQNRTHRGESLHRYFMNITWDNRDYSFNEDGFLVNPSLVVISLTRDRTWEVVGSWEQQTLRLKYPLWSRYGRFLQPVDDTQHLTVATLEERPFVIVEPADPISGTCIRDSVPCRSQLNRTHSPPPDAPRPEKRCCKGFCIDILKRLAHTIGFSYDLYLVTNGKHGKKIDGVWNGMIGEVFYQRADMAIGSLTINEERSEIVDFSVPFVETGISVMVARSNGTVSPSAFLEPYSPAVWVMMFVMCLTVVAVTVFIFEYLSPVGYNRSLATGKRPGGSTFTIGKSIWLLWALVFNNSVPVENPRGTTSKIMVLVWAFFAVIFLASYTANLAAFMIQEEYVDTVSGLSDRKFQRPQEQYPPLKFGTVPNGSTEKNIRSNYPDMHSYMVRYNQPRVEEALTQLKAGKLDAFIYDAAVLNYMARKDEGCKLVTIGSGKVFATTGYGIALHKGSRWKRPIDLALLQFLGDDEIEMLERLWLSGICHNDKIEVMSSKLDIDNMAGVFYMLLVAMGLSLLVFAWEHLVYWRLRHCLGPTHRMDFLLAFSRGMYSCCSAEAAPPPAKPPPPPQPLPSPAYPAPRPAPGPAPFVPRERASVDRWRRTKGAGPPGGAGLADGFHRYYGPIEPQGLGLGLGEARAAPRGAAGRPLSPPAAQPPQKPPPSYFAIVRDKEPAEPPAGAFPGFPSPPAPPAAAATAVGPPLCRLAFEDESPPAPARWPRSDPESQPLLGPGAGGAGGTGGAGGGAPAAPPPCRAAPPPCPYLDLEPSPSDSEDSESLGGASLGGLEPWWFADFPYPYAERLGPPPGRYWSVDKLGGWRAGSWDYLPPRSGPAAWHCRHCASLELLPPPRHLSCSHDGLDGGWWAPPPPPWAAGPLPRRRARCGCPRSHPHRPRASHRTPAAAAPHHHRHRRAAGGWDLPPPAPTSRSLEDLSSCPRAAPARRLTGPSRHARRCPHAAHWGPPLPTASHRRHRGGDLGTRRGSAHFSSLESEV
Procedure: as §1, §2, §3, §4

IV pharmacokinetics = format: in vivo, Sprague Dawley rats; details: rat, 2 mg/kg, normal saline (compounds marked * in 1% NMP and 99% normal saline); for Vd: read-out: Vss
Description: The table below summarizes the results of the IV pharmacokinetics.

[3] = Oral pharmacokinetics (plasma, brain, CSF); details: rat, per os, 10 mg/kg
Procedure: Plasma, brain, and CSF samples were analyzed at various time points over a 24 hour period.

NMDAR2D [4] = target: T5, NMDAR2D (Homo sapiens, UniProt O15399+Q05586); assay: [3H]MK-801 binding, NMDAR2D expressing HEK cell membranes; format: biochemical; details: 50 μM glutamate, read-out: NMDAR2D B: log EC50 (converted)
T5 construct: expressed in transfected cells; host or cells: HEK cells (membrane extract)
T5 sequence (O15399 28-1336, species assumed, other chains not shown): as above
Procedure: as §1, §2, §3, §4

[5] = normal saline (compounds marked * in 1% NMP and 99% normal saline)
[6] = plasma, normal saline (compounds marked * in 1% NMP and 99% normal saline)
[7] = Sprague Dawley, in vivo, iv, read-out: C0
[8] = Sprague Dawley, plasma, po, Tmax, normal saline (compounds marked * in 1% NMP and 99% normal saline)

SMILES	NMDAR2A A: % maximal [3H]MK-801 binding relative to 1 mM glycine (NMDAR2A)	NMDAR2B A: % maximal [3H]MK-801 binding relative to 1 mM glycine (NMDAR2B)	EC50 (NMDAR2B) [nM]	NMDAR2C A: % maximal [3H]MK-801 binding relative to 1 mM glycine (NMDAR2C)	EC50 (NMDAR2C) [nM]	NMDAR2D A: % maximal [3H]MK-801 binding relative to 1 mM glycine (NMDAR2D [2])	CSF Cmax [3] [ng/mL]	Cmax [3, 6] [ng/mL]	Max Effect (mean number of 50 kHz USVs per 15 seconds) ([1]; dose .1 mg/kg)	Emax (NMDAR2A) [%]	EC50 (NMDAR2A) [nM]	Emax (NMDAR2B) [%]	also measured
O=C1NCC12CNCCN2Cc1ccccc1 (single isomer, unassigned) [ED-2, 5-Benzyl-2,5,8-Triazaspiro[3.5]Nonan-1-One]	− (−=0)	+ (<100%=+)	< 1	+ (<100%=+)	< 1	+ (<100%=+)	178.3	1563.1	–	–	–	–	Max Effect (mean number of 50 kHz USVs per 15 seconds) ([1]; dose .001-1 mg/kg): *** (***: 10.1-20); EC50 (NMDAR2D [2]): < 1 nM; AUClast (IV pharmacokinetics): 806.5 ng·h/mL; C0 (IV pharmacokinetics): 1793.2 ng/mL; Cl (IV pharmacokinetics): 40.6 mL/min/kg; T1/2 (IV pharmacokinetics): 32.4 min; Vss (IV pharmacokinetics): 1.45 L/kg; % F [3]: 54%; Brain Cmax [3]: 478.5 ng/mL; AUClast [3, 5]: 2178.53 ng·h/mL; Tmax [3, 5]: 15 min
CC(C)(C)OC(=O)N1CCN(C(=O)OC(C)(C)C)C2(CNC2=O)C1 (single isomer, unassigned) [EE-2, Di-Tert-Butyl 1-Oxo-2,5,8-Triazaspiro[3.5]Nonane-5,8-Dicarboxylate]	− (−=0)	+ (<100%=+)	< 1	+ (<100%=+)	< 1	− (−=0)	–	–	–	–	–	–	–
CN1CCN(Cc2ccccc2)C2(CNC2=O)C1 (single isomer, unassigned) [EG-2, 5-Benzyl-8-Methyl-2,5,8-Triazaspiro[3.5]Nonan-1-One]	− (−=0)	− (−=0)	–	+ (<100%=+)	< 1	+ (<100%=+)	–	3526.63	–	–	–	–	EC50 (NMDAR2D [4]): < 1 nM; AUC(0-t) (IV pharmacokinetics; Sprague Dawley, in vivo, iv): 400 ng·h/mL; clearance (IV pharmacokinetics; Sprague Dawley, in vivo, iv): 83.3 mL/min/kg; half-life (IV pharmacokinetics; Sprague Dawley, in vivo, iv): 28.8 min; C0 (IV pharmacokinetics; [7]): 1100 ng/mL; Vd (IV pharmacokinetics; Sprague Dawley, in vivo, iv): 1.87 L/kg; Tmax [3, 8]: 15 min; % F [3]: 100%; AUClast [3, 5]: 3082.39 ng·h/mL
C[C@@H](O)[C@H](N)C(=O)N1CCNC2(CNC2=O)C1 (single isomer, unassigned) [EK-2, 8-(L-Threonyl)-2,5,8-Triazaspiro[3.5]Nonan-1-One]	–	+ (<100%=+)	< 1	–	–	–	81.6	1910.5	* (*: 6.0-7.6)	< 100	> 1	–	Tmax [3, 5]: 60 min
C[C@@H](O)[C@H](N)C(=O)N1CCN(Cc2ccccc2)C2(CNC2=O)C1 (single isomer, unassigned) [EL-1, 8-(L-Threonyl)-5-Benzyl-2,5,8-Triazaspiro[3.5]Nonan-1-One]	–	–	< 1	–	–	–	56.9	–	*** (***: 10.1-20)	0	–	< 100	AUC(0-t) (IV pharmacokinetics; Sprague Dawley, in vivo, iv): 4320 ng·h/mL; clearance (IV pharmacokinetics; Sprague Dawley, in vivo, iv): 7.35 mL/min/kg; half-life (IV pharmacokinetics; Sprague Dawley, in vivo, iv): 406 min; C0 (IV pharmacokinetics; [7]): 3250 ng/mL; Vd (IV pharmacokinetics; Sprague Dawley, in vivo, iv): 2.12 L/kg; bioavailability ([3]; Sprague Dawley, plasma, po, % F): 90%; AUC(0-t) ([3]; Sprague Dawley, plasma, po, AUClast, normal saline (compounds marked * in 1% NMP and 99% normal saline)): 19400 ng·h/mL; Cmax ([3]; Sprague Dawley, plasma, po, Cmax, normal saline (compounds marked * in 1% NMP and 99% normal saline)): 4980 ng/mL; Tmax [3, 8]: 30 min; Brain Cmax [3]: 143 ng/mL
C[C@@H](O)[C@H](N)C(=O)N1CCN(C(=O)OC(C)(C)C)CC12CNC2=O (stereo partly drawn) [EC-2, Tert-Butyl 5-(L-Threonyl)-1-Oxo-2,5,8-Triazaspiro[3.5]Nonane-8-Carboxylate]	–	–	< 1	–	–	–	–	–	** (**: 7.7-10)	< 100	> 1	> 100	–
CN1CCNC2(CNC2=O)C1 (stereo not drawn) [EH-1, 8-Methyl-2,5,8-Triazaspiro[3.5]Nonan-1-One]	–	–	< 1	− (−=0)	–	+ (<100%=+)	–	–	–	< 100	< 1	< 100	EC50 (NMDAR2D [4]): < 1 nM
CN1CCNC2(CNC2=O)C1 (stereo not drawn) [EH-2, 8-Methyl-2,5,8-Triazaspiro[3.5]Nonan-1-One]	+ (<100%=+)	+ (<100%=+)	< 1	− (−=0)	–	− (−=0)	–	–	–	–	< 1	–	–
CN1CCN(C(=O)OC(C)(C)C)CC12CN(CC(N)=O)C2=O (stereo not drawn) [ER-118]	− (−=0)	+ (<100%=+)	< 1	− (−=0)	–	++ (>100%=++)	–	–	–	–	–	–	EC50 (NMDAR2D [2]): < 1 nM
